Square brackets hold non-standard residues; d marks the D form. Ends that are not written are not given here.
How the values were obtained:
Type in all cases: in vivo
HMGB1 [1] = assay: Mouse model of acute lung injury induced by intratracheal LPS; HMGB1 in bronchoalveolar fluid by ELISA; settings: C57Bl/6 male mice, BALF after 48 hours, mean±SEM (n=6)
Method: This example illustrates efficacy of compounds of the invention in the inhibition of HMGB1 secretion.
Compounds of the invention were tested in a mouse model of acute lung injury induced by intratracheal administration of lipopolysaccharide (LPS) as described, for instance, in D'Alessio F R. Mouse Models of Acute Lung Injury and ARDS. Methods Mol Biol. 2018, 1809:341-350. C57BI/6 male mice were randomized into eight groups of 6 animals each. Mice were treated intratracheally with 1 μg/mouse of α-Galactosyl Ceramide (α-GalCer, KRN7000, Sigma-Aldrich) and after 24 hours with LPS (E. coli; 1 mg/mouse) and 10 μL/mouse Freund's complete adjuvant. Then, mice received by inhalation 50 μL saline (control); 10, 100, or 250 μg/kg of H-Tyr-D-Ala-Gly-Phe-Leu-Arg-Arg-NH2; 100 μg/kg of H-Tyr-D-Ala-Gly-Phe-Leu-Arg-Arg-NHC2H5; 100 μg/kg of H-Tyr-D-Ala-Gly-Phe-Leu-Arg-Arg-NHC4H9; 100 μg/kg of H-Tyr-D-Ala-Gly-Phe-Leu-Arg-Arg-N(CH3)2; 10 μg/kg H-Tyr-D-Ala-Gly-Phe-Leu-Arg-Arg-OH (Chavkin C et al. 1981); or 250 μg/kg of [D-Ala^2, D-Leu^5]-enkephalin as solutions in 50 μL. saline. After 48 hours, HMGB1 concentrations were measured in bronchoalveolar fluid (BALF) with commercially available ELISA kit for HMGB1 (SEA3999Mu, Cloud-Clone corp.). Results are presented in Tables 1 as mean±SEM (n=6) of HMGB1 levels in BALF, in % of control.

HMGB1 [2] = assay: Mouse model of antigen-induced arthritis (mBSA); knee swelling and HMGB1 in synovial lavage fluid by ELISA; settings: C3H/He male mice, 0.14 mg/kg s.c. once-a-day for 5 days, 25th day, mean±SEM (n=6)
Method: (§1) This example illustrates that compound (I) is useful for treating arthritis, the HMGB1-dependent disease.
An efficacy of H-Tyr-D-Ala-Gly-Phe-Leu-Arg-Arg-NH2 acetate was tested in a mouse model of antigen-induced arthritis induced by methylated bovine serum albumin (mBSA), as described in Brackertz et al., Arthritis Rheum. 1977, 20(3):841-50; Staite et al., Agents and Actions 1989, 27(3/4):338-40. Briefly, male C3H/He mice 8-10 weeks of age were randomized into two groups of 6 animals each. Immunization: the mice were immunized 2 times (on the 0th and 7th days) with s.c. injections of mBSA (50 mg/kg, Sigma-Aldrich) emulsified in 20 μL Freund's complete adjuvant and on the 21st day received intra-articular injection of mBSA (50 mg/kg) in 20 μL saline in the right hind knee as a booster immunization. […] Treatment: the mice received s.c. injections either 0.1 ml saline (control, n=6) or 0.14 mg/kg H-Tyr-D-Ala-Gly-Phe-Leu-Arg-Arg-NH2 acetate in 0.1 ml saline (n=6), once-a-day for 5 consecutive days, beginning 30 min after the booster immunization. The disease course was quantified by assessment of the swelling of the arthritic knee joint on 25th day. HMGB1 levels (pg/ml) in the synovial lavage fluids of the arthritic joint on 25th day was measured using ELISA (SEA3999Mu, Cloud-Clone corp.). […]

HMGB1 [3] = assay: Mouse model of rheumatoid arthritis (type II collagen-induced); serum HMGB1 by ELISA and arthritis incidence; settings: BALB/c male mice
Method: as §1
An efficacy of the compound of the invention was tested in a mouse model of rheumatoid arthritis, as described in Brand et al., Nat Protoc. 2007, 2(5):1269-75. Male BALB/c mice were randomized into two groups of 5 animals each. Arthritis was induced in using an intradermal injection of cold emulsion (0.05 ml) prepared by emulsifying chicken type II collagen (CII) solution in acetic acid with complete Freund's adjuvant (CFA) into the base of the tail. Three weeks later, the mice were administered by a second injection in the same manner. Following the booster immunization, mice received 50 μL saline i.p. (control) or 100 μg/kg H-Tyr-D-Ala-Gly-Phe-Leu-Arg-Arg-NH2 in 50 μL saline i.p., once-a-day, for two weeks. The serum level of HMGB1 was determined on day 35 with commercially available ELISA kit for HMGB1 (SEA3999Mu, Cloud-Clone corp.). The clinical severity of arthritis in each paw was quantified according to a graded scale from 0 to 4, as described in Brand et al., Nat Protoc. 2007, 2(5):1269-75. Results are presented in Table 2 as and mean±SEM (n=5) of HMGB1 levels in serum in % of control and arthritis incidence.

H-Tyr-D-Ala-Gly-Phe-Leu-Arg-Arg-N(CH3)2 acetate (H-Y[dA]GFLRR-NMe2; also: acetate salt) [heptapeptide dimethylamide of formula (I)]
HMGB1 in BALF, % of control (HMGB1 [1]; 100 μg/kg by inhalation): 42.3 ± 5.9 %

H-Tyr-D-Ala-Gly-Phe-Leu-Arg-Arg-NHC2H5 acetate (H-Y[dA]GFLRR-NHEt; also: acetate salt) [heptapeptide ethylamide of formula (I)]
HMGB1 in BALF, % of control (HMGB1 [1]; 100 μg/kg by inhalation): 35.2 ± 7.2 %

H-Tyr-D-Ala-Gly-Phe-Leu-Arg-Arg-NHC4H9 acetate (H-Y[dA]GFLRR-NHC4H9; also: acetate salt) [heptapeptide butylamide of formula (I)]
HMGB1 in BALF, % of control (HMGB1 [1]; 100 μg/kg by inhalation): 40.1 ± 5.0 %

H-Tyr-D-Ala-Gly-Phe-Leu-Arg-Arg-OH (H-Y[dA]GFLRR-OH; also: acetate salt) [modified [D-Ala^2]-dynorphin (1-7) described by Chavkin C et al. 1981; structurally similar comparison peptide, reference compound]
HMGB1 in BALF, % of control (HMGB1 [1]; 10 μg/kg by inhalation): 88.67 ± 10.5%

L-tyrosyl-D-alanyl-L-glycyl-L-phenylala nyl-L-leucyl-L-arginyl-L-arginine amide acetate (Y[dA]GFLRR-NH2; also: acetate salt) [heptapeptide amide of formula (I), Z = NH2]
HMGB1 in BALF, % of control (HMGB1 [1]; 100 μg/kg by inhalation): 31.8 ± 12.4 % | HMGB1 in BALF, % of control (HMGB1 [1]; 250 μg/kg by inhalation): 34.2 ± 8.0 % | HMGB1 in synovial lavage fluid of the arthritic joint (HMGB1 [2]): 119 ± 38 pg/mL | Knee joint circumference (HMGB1 [2]): 1.32 ± 0.04 cm | Arthritis incidence (HMGB1 [3]; 100 μg/kg i.p. once-a-day for two weeks (n=5)): 20% | HMGB1 in serum, % of control (HMGB1 [3]; 100 μg/kg i.p. once-a-day for two weeks, day 35, mean±SEM (n=5)): 21.5 ± 5.9 %

Source: patent publication US20240199693A1, “HE[…] FOR USE IN THE TREATMENT OF HMGB1-DEPENDENT DISEASES” (priority 2021, published 2024)
